# Patent US7230011B2, “Benzenesulfonic acid indol-5-yl esters as antagonists of the 5ht6 receptor” (Eli Lilly and Company, priority 2002, dated 2007)
# Where two headings read alike, the source gives them in different places.
# How the values were obtained:
# [1] = tested on: Male Sprague-Dawley rats; details: s.c., six-hour delay
# [2] = target: 5-HT6 receptor (Homo sapiens, UniProt P50406); details: cited from earlier work; for affinity for the 5-HT6 receptor: in words; for Ki: 5-HT6 receptor
# [3] = tested on: stretching behavior; details: cited from earlier work; for block of stretching behavior induced by Ro 04-6790: methyl-scopolamine at doses known to be peripherally selective
# [4] = cited from earlier work; for pharmacokinetics: in words
# [5] = tested on: glutamate release in the prefrontal cortex; details: 10 mg/kg, sc; cited from earlier work
# [6] = tested on: yawning behavior; details: in vivo; cited from earlier work
# [7] = tested on: aged rats; details: cited from earlier work
# [8] = tested on: Morris water maze; details: in vivo; cited from earlier work
# [9] = tested on: rats with unilateral nigrostriatal 6-OH-DA lesions; details: cited from earlier work
# [10] = tested on: object recognition test; details: in vivo; cited from earlier work
# [11] = target: 5-HT2A receptor (Homo sapiens, UniProt P28223); details: 5-HT6 versus 5-HT2A; cited from earlier work
# Sequence of 5-HT2A receptor (P28223 whole entry): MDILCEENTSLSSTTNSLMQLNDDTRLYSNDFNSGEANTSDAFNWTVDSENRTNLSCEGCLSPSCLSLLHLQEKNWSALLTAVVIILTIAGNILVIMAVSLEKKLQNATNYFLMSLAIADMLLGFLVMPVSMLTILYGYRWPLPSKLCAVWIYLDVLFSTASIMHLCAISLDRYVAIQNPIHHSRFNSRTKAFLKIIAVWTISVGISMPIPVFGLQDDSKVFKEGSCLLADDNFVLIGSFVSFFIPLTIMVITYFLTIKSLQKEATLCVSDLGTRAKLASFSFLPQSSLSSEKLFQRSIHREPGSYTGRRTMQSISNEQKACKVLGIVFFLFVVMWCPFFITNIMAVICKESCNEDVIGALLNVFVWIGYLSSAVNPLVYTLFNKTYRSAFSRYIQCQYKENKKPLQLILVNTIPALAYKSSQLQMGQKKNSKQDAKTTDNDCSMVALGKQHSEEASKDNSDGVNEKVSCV
# Sequence of 5-HT6 receptor (P50406 whole entry): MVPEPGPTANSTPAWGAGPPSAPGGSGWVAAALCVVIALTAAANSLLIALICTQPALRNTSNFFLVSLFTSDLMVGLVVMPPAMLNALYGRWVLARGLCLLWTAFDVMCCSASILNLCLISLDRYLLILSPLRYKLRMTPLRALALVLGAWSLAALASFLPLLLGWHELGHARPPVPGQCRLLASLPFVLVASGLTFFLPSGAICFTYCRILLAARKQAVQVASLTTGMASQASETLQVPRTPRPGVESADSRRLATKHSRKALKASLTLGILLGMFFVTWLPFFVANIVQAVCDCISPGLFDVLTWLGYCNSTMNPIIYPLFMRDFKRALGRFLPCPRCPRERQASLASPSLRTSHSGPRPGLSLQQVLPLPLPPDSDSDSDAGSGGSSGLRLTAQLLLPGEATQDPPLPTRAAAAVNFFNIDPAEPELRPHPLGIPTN
compound,measurement,setting,value
"Nc1c2c(nc3ccccc13)CCCC2 [Tacrine, tacrine]",retention,[1]; 3 mg/kg,not
same,retention,[1]; 10 mg/kg,significantly improved retention
Cc1nc2n(c(=O)c1CCN1CCC(c3noc4cc(F)ccc34)CC1)CCCC2 [risperidone],affinity for the 5-HT6 receptor,[2],do not have significant affinity
"CN1[C@@H]2C[C@@H](OC(=O)[C@H](CO)c3ccccc3)C[C@H]1[C@@H]1O[C@@H]12 [Scopolamine, scopolamine]",block of stretching behavior induced by Ro 04-6790,[3],blocked
CNc1cc(NS(=O)(=O)c2ccc(N)cc2)cc(NC)n1 [Ro 63-0563],pharmacokinetics,[4],poor pharmacokinetics
same,Ki,[2]; read-out: Ki,12 nM
"COc1ccc(NS(=O)(=O)c2sc3ccc(Cl)cc3c2C)cc1N1CCNCC1 [SB-271,046]",bioavailable,[4]; in vivo,80%
same,glutamate release in the prefrontal cortex,[5],increases glutamate release
same,yawning behavior induced by physostigmine,[6],potentiated the yawning behavior
same,spatial alternation operant behavior test,[7],improvements
same,performance in the Morris water maze,[8],improved performance
O=C(CCCN1CCC(O)(c2ccc(Cl)cc2)CC1)c1ccc(F)cc1 [haloperidol],affinity for the 5-HT6 receptor,[2],do not have significant affinity
Ro 04-6790,pharmacokinetics,[4],poor pharmacokinetics
same,rotational behavior induced by L-DOPA or amphetamine,"[9]; rat, in vivo",did not block
same,rotation behavior induced by scopolamine,"[9]; rats, unilateral nigrostriatal 6-OH-DA lesions",block the rotation behavior
same,Ki,[2]; read-out: Ki,50 nM
same,stretching behavior,"[3]; rat, in vivo",induced stretching behavior in a dose-dependent manner
same,scopolamine induced performance deficits in the object recognition test,[10],reversed scopolamine induced performance deficits
"CCc1[nH]c2ccc(OC)cc2c1CCN(C)C [N,N-dimethyl-2-ethyl-5-methoxytryptamine]",selectivity versus the 5-HT2A receptor,[11],3.5 fold
same,Ki,[2],81 nM
CN1[C@@H]2CC[C@H]1C[C@@H](OC(=O)C(CO)c1ccccc1)C2 (some centres unmarked) [atropine],block of yawning and stretching behavior induced by antisense oligonucleotides targeting the 5-HT6 receptor,[3]; antisense icv to rats,blocked
same,block of stretching behavior induced by Ro 04-6790,[3],blocked
CN1CCC(c2cn(Cc3ccccc3)c3ccc(OS(=O)(=O)c4c(F)cccc4F)cc23)CC1.Cl,melting point,,225 to 227 °C
